The test system of assay [1] is RPMI8226 myeloma cancer cells. In words: cells. To be noted: read-out: IC50 RPMI8226. The assay is classed as cell-based, human.
The subject of assay [2] is HL60 promyelocytic leukemia cells. Kind of assay: cells. The note with it: read-out: IC50 HL60. Format: cell-based, human.
The test system of assay [3] is THP1 acute monocytic leukemia cells. Kind of assay: cells. Format: cell-based, human. The note with it: read-out: IC50 THP1.
Assay [4] concerns normal peripheral blood-derived mononuclear cells (PBMC). In words: cells. The assay is classed as cell-based. The note with it: read-out: IC50 PBMC.
In assay [5] the test system is THP1 cells. The assay is classed as cell-based, human. Also noted: concentration or dose not given beside the values.
The subject of assay [6] is RPMI8226 cells. In words: annexin V/propidium iodide apoptosis assay, RPMI8226. The assay is classed as cell-based, human. To be noted: RPMI8226, 48 h, 3 µM, annexin V/PI. The text has this: (§1) Double staining of cells with Annexin V and propidium iodide (PI) was used according to the protocol described in our previous article. This method is a useful tool for distinguishing viable cells (unstained with either fluorochrome) from early apoptotic cells (stained only with Annexin V), late apoptotic (stained with Annexin V and propidium iodide) and necrotic (dead) cells (stained only with PI).
(§2) Briefly, 5 × 10^5 control and drug treated cells were washed with cold PBS and resuspended in 500 μl binding buffer (delivered from producer) that contained 5 μl of Annexin V fluorescein isothiocyanate (FITC), 5 μl of PI and stained for 15 minutes in room temperature. Finally, at least 10^4 cells were analyzed for FITC and PI fluorescence (Ex ~488 nm; Em ~530 nm) using a flow cytometer (LSR II, Becton Dickinson). The cells stained with the annexin V/propidium iodide mixture were then visualized using fluorescence microscopy (Olympus IX70, Japan), magnification × 200.

A further assay relates to HL60 cells. Kind of assay: annexin V/propidium iodide apoptosis assay, HL60. The assay is classed as cell-based, human. To be noted: HL60, 48 h, 0.7 μM, annexin V/PI.
From the text: as §1, §2

The subject of assay [7] is THP1 cells. Kind of assay: annexin V/propidium iodide apoptosis assay, THP1. Format: cell-based, human. To be noted: THP1, 48 h, 0.3 μM, annexin V/PI.
From the text: as §1, §2

Assay [8] has as its system caspase-3/-7 in HL60 cells. Format: cell-based, human.
Assay [9] relates to caspase-3/-7 in THP1 cells. Format: cell-based, human.
The subject of another assay is caspase-9 in THP1 cells. The assay is classed as cell-based, human.
The test system of assay [10] is caspase-3/-7 in RPMI8226 cells. Format: cell-based, human.
Assay [11] concerns intracellular calcium (Ca2+) in THP1 cells. In words: intracellular calcium measurement (Fluo-4-NW), THP1. Format: cell-based, human. To be noted: THP1, IC50 dose, 4 h. The procedure:
(§3) Intracellular calcium level was determined using the fluorescent probe Fluo-4NW according to the protocol described in our previous article. After entering the cell, Fluo-4NW is converted by cytosolic hydrolases to the active form, having the possibility of binding of calcium ions. As a result of joining of calcium ions, the probe emits fluorescence (λem = 538 nm) after excitation with light of wavelength 485 nm.
(§4) Cells were cultured and treated with investigated compounds on Petri dishes. Next, the cells were plated in 96-well black fluorimetric plates (2 × 10^4 cells/well). The growth medium was removed and the cells were washed with PBS in order to eliminate sources of baseline fluorescence. Finally a dye loading solution (Fluo-4-NW dye, 4-[(Dipropylamino)sulfonyl] benzoic acid (Probenecid) - used to inhibit extrusion of the indicator out of the cell by organic anion transporters, Hanks’ balanced salt solution (HBSS), 20 mM N-(2- hydroxyethyl)piperazine-N’-(2-ethanesulfonic acid) buffer solution (HEPES)) was added in a volume of 100 μl per well and incubated for 30 min in the total darkness at 37 °C, and then for next 30 min. at room temperature. The measurement was done on Fluoroskan Ascent FL microplate reader (Labsystems, Sweden) using 494 nm excitation and 516 nm emission wavelengths.

Assay [12] has as its system RPMI8226 cells. Format: cell-based, human.
Assay [13] relates to intracellular calcium (Ca2+) in HL60 cells. Kind of assay: intracellular calcium measurement (Fluo-4-NW), HL60. Format: cell-based, human. The note with it: HL60, IC50 dose. The procedure:
as §3, §4

Structures are written as SMILES. Like-named read-outs stand apart in the source and are kept apart here. Where only a bound is given, the exact number is not on record here.

For the compound `COC(=O)C(Cc1ccc(N(CCCl)CCCl)cc1)N=CN1CCOCC1` (centres unmarked) [EM-MOR-MEL], the half-maximal inhibitory concentration (IC50) in assay [1] (Homo sapiens, RPMI-8226, 48 h) stood at 3.6 µM; in assay [2] (Homo sapiens, HL-60, 48 h), 0.49 ± 0.098 µM; in assay [3] (Homo sapiens, THP-1, 48 h), 0.07 ± 0.004 µM; in assay [4] (PBMC, 48 h), 6.41 ± 0.85 µM. Besides, the “DNA damage (tail DNA), THP1” value with THP1 cells [5] is recorded as ~ 13%.
Consider `O=C(O)C(Cc1ccc(N(CCCl)CCCl)cc1)N=CN1CCOCC1` (centres unmarked) [MOR-MEL], for which the concentration for half-maximal inhibition (IC50) in assay [1] (Homo sapiens, RPMI-8226, 48 h) is greater than 30 µM; in [2] (Homo sapiens, HL-60, 48 h), greater than 30 µM; in assay [3] (Homo sapiens, THP-1, 48 h), greater than 30 µM.
For `N[C@@H](Cc1ccc(N(CCCl)CCCl)cc1)C(=O)O` [MEL, melphalan, reference compound], the half-maximal inhibitory concentration (IC50) in assay [1] (Homo sapiens, RPMI-8226, 48 h) amounted to 8.9 µM; in [2] (Homo sapiens, HL-60, 48 h) it was 3.78 µM; in assay [3] (Homo sapiens, THP-1, 48 h), 6.26 µM. Also, the “late apoptotic cells, RPMI8226” value with RPMI8226 cells [6] was “approximately 25%”. In addition, the “late apoptotic cells, HL60” value in the assay on HL60 cells is reported as roughly 35%. Also, the “late apoptotic cells, THP1” value in the assay with THP1 cells [7] is reported as roughly 17%. Further, in assay [8], the “Caspase 3 activity HL-60, 24 h” value came out at 736.92 ± 105.48%. The “Caspase 3 activity THP1, 24 h” value in assay [9] is on record as 429.08 ± 48.10%. Besides, the “Caspase 9 activity THP1, 24 h” value in the assay with caspase-9 in THP1 cells is 316.5 ± 17.31%. In assay [10], the “Caspase 3 activity RPMI8226, 24 h” value was 463.75 ± 64.5%. The “level of intracellular calcium, THP1” value in [11] (control = 100%) was found to be 131.27 ± 10.08%.
As to `CCOC(=O)C(N)Cc1ccc(N(CCCl)CCCl)cc1` (centres unmarked) [EE-MEL], the IC50 in assay [1] worked out at 1.17 µM; in assay [2] it was 0.7 µM; in assay [3] it was 0.35 µM; in assay [4], 2.2 ± 0.25 µM. Moreover, the “DNA damage (tail DNA), RPMI8226” value with RPMI8226 cells [12] is ~ 38%. For the same compound, in the assay with THP1 cells [5], the “DNA damage (tail DNA), THP1” value is ~ 15%. In addition, in [8], the “Caspase 3 activity HL-60, 24 h” value was 1225.64 ± 155.22%. In addition, the “Caspase 3 activity THP1, 24 h” value in assay [9] was 788.85 ± 83.40%. The “Caspase 3 activity RPMI8226, 24 h” value in [10] is reported as 656.19 ± 221.7%. In addition, the “fold increase of intracellular calcium, HL60, 24 h” value in [13] is reported as “approx. 2 fold”.
`CCCN(C=NC(Cc1ccc(N(CCCl)CCCl)cc1)C(=O)OC)CCC` (centres unmarked) [EM-DIPR-MEL]: the IC50 in assay [1] (Homo sapiens, RPMI-8226, 48 h) was 5.94 ± 0.65 µM; in assay [1], 4.85 µM; in assay [2] (Homo sapiens, HL-60, 48 h), 0.85 µM; in assay [3] (Homo sapiens, THP-1, 48 h), 0.41 µM. In the assay with THP1 cells [7], the “late apoptotic cells, THP1” value was “comparable to that of the unmodified drug”. For the same compound, the “DNA damage (tail DNA), RPMI8226” value with RPMI8226 cells [12] is “comparable to that of melphalan”. In addition, the “DNA damage (tail DNA), THP1” value in the assay with THP1 cells [5] is on record as ~ 7%.
As for `CCCN(C=NC(Cc1ccc(N(CCCl)CCCl)cc1)C(=O)OCC)CCC` (centres unmarked) [EE-DIPR-MEL], the IC50 came to 4.85 ± 0.195 µM in [1] (Homo sapiens, RPMI-8226, 48 h); 5.94 µM in assay [1]; 1.05 µM in [2] (Homo sapiens, HL-60, 48 h); 0.69 µM in assay [3] (Homo sapiens, THP-1, 48 h). Also, the “late apoptotic cells, THP1” value in the assay on THP1 cells [7] is “comparable to that of the unmodified drug”. Moreover, the “DNA damage (tail DNA), RPMI8226” value with RPMI8226 cells [12] was “comparable to that of melphalan”. The “DNA damage (tail DNA), THP1” value in the assay with THP1 cells [5] was ~ 7%.
For the compound `CCOC(=O)C(Cc1ccc(N(CCCl)CCCl)cc1)N=CN1CCOCC1` (centres unmarked) [EE-MOR-MEL], the concentration for half-maximal inhibition (IC50) in [1] (Homo sapiens, RPMI-8226, 48 h) was 3.13 µM; in assay [2] (Homo sapiens, HL-60, 48 h), 0.32 µM; in assay [3] (Homo sapiens, THP-1, 48 h), 0.04 µM. The “DNA damage (tail DNA), THP1” value with THP1 cells [5] is ~ 13%. Further, the “Caspase 3 activity HL-60, 24 h” value in [8] is 1127.68 ± 39.24%. Also, in assay [9], the “Caspase 3 activity THP1, 24 h” value is 981.93 ± 51.79%. Also, in assay [11], the “fold increase of intracellular calcium ions, THP1” value was “approx. 2.8 fold”.
Regarding `CCCN(C=NC(Cc1ccc(N(CCCl)CCCl)cc1)C(=O)O)CCC` (centres unmarked) [DIPR-MEL], the IC50 is greater than 30 µM in assay [1] (Homo sapiens, RPMI-8226, 48 h); greater than 30 µM in assay [2] (Homo sapiens, HL-60, 48 h); greater than 30 µM in assay [3] (Homo sapiens, THP-1, 48 h).
